Experimental data reported in patent publication US6881741B2 (ViroChem Pharma Inc., priority 2001, dated 2005).

The molecules below were run against recombinant HCV NS5B (HCV RNA-dependent RNA polymerase) (Hepatitis C virus genotype 1b, UniProt P26663) (assay: biochemical). Conditions: HCV polymerase activity, list of compounds of Example 27; read-out: IC50 (polymerase activity).
recombinant HCV NS5B (HCV RNA-dependent RNA polymerase), sequence (P26663 2420-3010 limits assumed): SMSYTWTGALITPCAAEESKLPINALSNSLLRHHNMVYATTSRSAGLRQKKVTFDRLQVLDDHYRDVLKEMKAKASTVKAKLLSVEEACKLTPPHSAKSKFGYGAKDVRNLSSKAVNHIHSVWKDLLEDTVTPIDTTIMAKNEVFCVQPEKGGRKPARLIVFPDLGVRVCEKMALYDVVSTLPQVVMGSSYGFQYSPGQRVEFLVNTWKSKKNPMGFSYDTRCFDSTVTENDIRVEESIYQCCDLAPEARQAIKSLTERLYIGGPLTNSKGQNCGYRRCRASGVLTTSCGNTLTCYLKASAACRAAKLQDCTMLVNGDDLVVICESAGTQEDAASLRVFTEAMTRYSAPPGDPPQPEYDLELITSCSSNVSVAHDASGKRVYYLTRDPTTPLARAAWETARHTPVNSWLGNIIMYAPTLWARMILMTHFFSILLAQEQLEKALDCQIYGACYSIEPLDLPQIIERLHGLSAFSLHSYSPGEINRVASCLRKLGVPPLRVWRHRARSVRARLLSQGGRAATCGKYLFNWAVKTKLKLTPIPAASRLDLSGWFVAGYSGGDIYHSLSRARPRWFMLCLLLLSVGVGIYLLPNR

Structure (SMILES)	IC50 [µM]
CC(=O)N(Cc1cccc(Cl)c1)c1cc(-c2ccccc2)sc1C(=O)O [Compound 476, 3-[ACETYL-(3-CHLORO-BENZYL)-AMINO]- 5-PHENYL-THIOPHENE-2-CARBOXYLIC ACID]	> 20
CCC(=O)N(Cc1cccc(Cl)c1)c1cc(-c2ccccc2)sc1C(=O)O [Compound 477, 3-[(3-CHLORO-BENZYL)-PROPIONYL- AMINO]-5-PHENYL-THIOPHENE-2- CARBOXYLIC ACID]	5 to 20
COCC(=O)N(Cc1cccc(Cl)c1)c1cc(-c2ccccc2)sc1C(=O)O [Compound 478, 3-[(3-CHLORO-BENZYL)-(2-METHOXY- ACETYL)-AMINO]-5-PHENYL-THIOPHENE- 2-CARBOXYLIC ACID]	> 20
CC(C)CC(=O)N(Cc1cccc(Cl)c1)c1cc(-c2ccccc2)sc1C(=O)O [Compound 479, 3-[(3-CHLORO-BENZYL)-(3-METHYL- BUTYRYL)-AMINO]-5-PHENYL- THIOPHENE-2-CARBOXYLIC ACID]	< 5
O=C(O)c1sc(-c2ccccc2)cc1N(Cc1cccc(Cl)c1)C(=O)C1CC1 [Compound 480, 3-[(3-CHLORO-BENZYL)- CYCLOPROPANECARBONYL-AMINO]-5- PHENYL-THIOPHENE-2-CARBOXYLIC ACID]	5 to 20
O=C(O)c1sc(-c2ccccc2)cc1N(Cc1cccc(Cl)c1)C(=O)C1CCC1 [Compound 481, 3-[(3-CHLORO-BENZYL)- CYCLOBUTANECARBONYL-AMINO]-5- PHENYL-THIOPHENE-2-CARBOXYLIC ACID]	5 to 20
CCCC(=O)N(Cc1cccc(Cl)c1)c1cc(-c2ccccc2)sc1C(=O)O [Compound 482, 3-[BUTYRYL-(3-CHLORO-BENZYL)- AMINO]-5-PHENYL-THIOPHENE-2- CARBOXYLIC ACID]	< 5
CC(=O)N(Cc1ccc(F)cc1F)c1cc(-c2ccccc2)sc1C(=O)O [Compound 483, 3-[ACETYL-(2,4-DIFLUORO-BENZYL)- AMINO]-5-PHENYL-THIOPHENE-2- CARBOXYLIC ACID]	5 to 20
COCC(=O)N(Cc1ccc(F)cc1F)c1cc(-c2ccccc2)sc1C(=O)O [Compound 484, 3-[(2,4-DIFLUORO-BENZYL)-(2-METHOXY- ACETYL)-AMINO]-5-PHENYL-THIOPHENE- 2-CARBOXYLIC ACID]	5 to 20
CC(C)C(=O)N(Cc1ccc(F)cc1F)c1cc(-c2ccccc2)sc1C(=O)O [Compound 485, 3-[(2,4-DIFLUORO-BENZYL)- ISOBUTYRYL-AMINO]-5-PHENYL- THIOPHENE-2-CARBOXYLIC ACID]	5 to 20
CC(C)CC(=O)N(Cc1ccc(F)cc1F)c1cc(-c2ccccc2)sc1C(=O)O [Compound 486, 3-[(2,4-DIFLUORO-BENZYL)-(3-METHYL- BUTYRYL)-AMINO]-5-PHENYL- THIOPHENE-2-CARBOXYLIC ACID]	5 to 20
O=C(O)c1sc(-c2ccccc2)cc1N(Cc1ccccc1)C(=O)CC1CCCC1 [Compound 487, 3-[BENZYL-(2-CYCLOPENTYL-ACETYL)- AMINO]-5-PHENYL-THIOPHENE-2- CARBOXYLIC ACID]	< 5
CC(C)N(C(=O)c1ccc(Cl)cc1Cl)c1cc(-c2ccc3[nH]ccc3c2)sc1C(=O)O [Compound 488, 3-[(2,4-DICHLORO-BENZOYL)- ISOPROPYL-AMINO]-5-(1H-INDOL-5-YL)- THIOPHENE-2-CARBOXYLIC ACID]	< 5
O=C(O)c1sc(-c2ccccc2)cc1N(Cc1ccccc1)C(=O)C1CCC1 [Compound 489, 3-(BENZYL-CYCLOBUTANECARBONYL- AMINO)-5-PHENYL-THIOPHENE-2- CARBOXYLIC ACID]	< 5
O=C(O)c1sc(-c2ccccc2)cc1N(Cc1ccc(F)cc1F)C(=O)C1CCCCC1 [Compound 490, 3-[CYCLOHEXANECARBONYL-(2,4- DIFLUORO-BENZYL)-AMINO]-5-PHENYL- THIOPHENE-2-CARBOXYLIC ACID]	< 5
C=CCN(C(=O)Cc1ccc(OC)cc1)c1cc(-c2ccccc2)sc1C(=O)O [Compound 491, 3-{ALLYL-[2-(4-METHOXY-PHENYL)- ACETYL]-AMINO}-5-PHENYL-THIOPHENE- 2-CARBOXYLIC ACID]	> 20
CCCC(=O)N(CC)c1cc(-c2ccccc2)sc1C(=O)O [Compound 493, 3-(BUTYRYL-ETHYL-AMINO)-5-PHENYL- THIOPHENE-2-CARBOXYLIC ACID]	5 to 20
CCN(C(=O)CCC(C)C)c1cc(-c2ccccc2)sc1C(=O)O [Compound 494, 3-[ETHYL-(4-METHYL-PENTANOYL)- AMINO]-5-PHENYL-THIOPHENE-2- CARBOXYLIC ACID]	< 5
O=C(O)c1sc(-c2ccccc2)cc1N(Cc1ccc(F)cc1F)C(=O)C1CCC1 [Compound 495, 3-[CYCLOBUTANECARBONYL-(2,4- DIFLUORO-BENZYL)-AMINO]-5-PHENYL- THIOPHENE-2-CARBOXYLIC ACID]	< 5

Structure (SMILES)	IC50 [µM]
CCCC(=O)N(Cc1ccc(F)cc1F)c1cc(-c2ccccc2)sc1C(=O)O [Compound 496, 3-[BUTYRYL-(2,4-DIFLUORO-BENZYL)- AMINO]-5-PHENYL-THIOPHENE-2- CARBOXYLIC ACID]	< 5
CN(C(=O)C1CCCC1)c1cc(-c2ccccc2)sc1C(=O)O [Compound 497, 3-(CYCLOPENTANECARBONYL-METHYL- AMINO)-5-PHENYL-THIOPHENE-2- CARBOXYLIC ACID]	< 5
CN(C(=O)C1CCCCC1)c1cc(-c2ccccc2)sc1C(=O)O [Compound 498, 3-(CYCLOHEXANECARBONYL-METHYL- AMINO)-5-PHENYL-THIOPHENE-2- CARBOXYLIC ACID]	< 5
CC(C)(C)OC(=O)N1CCC(N(C(=O)c2ccc(Cl)cc2Cl)c2cc(-c3ccccc3)sc2C(=O)O)C1 (stereo not shown) [Compound 499, 3-[(2-CARBOXY-5-PHENYL-THIOPHEN-3- YL)-(2,4-DICHLORO-BENZOYL)-AMINO]- PYRROLIDINE-1-CARBOXYLIC ACID #TERT!-BUTYL ESTER]	< 5
CC(C)N(c1cc(-c2ccccc2)sc1C(=O)O)C(=O)[C@]1(C)CC[C@@H](C)CC1 [Compound 500, 3-[(1,4-DIMETHYL- CYCLOHEXANECARBONYL)-ISOPROPYL- AMINO]-5-PHENYL-THIOPHENE-2- CARBOXYLIC ACID]	< 5
CCc1ccc(-c2cc(N(C(=O)c3ccc(C)cc3O)C(C)C)c(C(=O)O)s2)cc1 [Compound 501, 5-(4-ETHYL-PHENYL)-3-[(2-HYDROXY-4- METHYL-BENZOYL)-ISOPROPYL-AMINO]- THIOPHENE-2-CARBOXYLIC ACID]	< 5
Cc1cccc(-c2cc(N(C(=O)c3ccc(C)cc3O)C(C)C)c(C(=O)O)s2)c1 [Compound 502, 3-[(2-HYDROXY-4-METHYL-BENZOYL)- ISOPROPYL-AMINO]-5-#M!-TOLYL- THIOPHENE-2-CARBOXYLIC ACID]	< 5
O=C(O)c1sc(-c2ccccc2)cc1N(C(=O)c1ccc(Cl)cc1Cl)C1CCNC1 (stereo not shown) [Compound 503, 3-[(2,4-DICHLORO-BENZOYL)- PYRROLIDIN-3-YL-AMINO]-5-PHENYL- THIOPHENE-2-CARBOXYLIC ACID]	5 to 20
CC(C)N(C(=O)c1ccc(Cl)cc1Cl)c1cc(C2=CCN(C(=O)OCc3ccccc3)CC2)sc1C(=O)O [Compound 504, 4-(5-CARBOXY-4-[(2,4-DICHLORO- BENZOYL)-ISOPROPYL-AMINO]- THIOPHEN-2-YL)-3,6-DIHYDRO-2#H!- PYRIDINE-1-CARBOXYLIC ACID BENZYL ESTER]	< 5
Cc1ccc(C(=O)N(c2cc(-c3ccccc3)sc2C(=O)O)C(C)C)c(/C=N/O)c1 [Compound 505, 3-{[2-(HYDROXYIMINO-METHYL)-4- METHYL-BENZOYL]-ISOPROPYL-AMINO)-5- PHENYL-THIOPHENE-2-CARBOXYLIC ACID]	5 to 20
N=C(N)N1CCC(N(C(=O)c2ccc(Cl)cc2Cl)c2cc(-c3ccccc3)sc2C(=O)O)CC1 [Compound 506, 3-[(1-CARBAMIMIDOYL-PIPERIDIN-4-YL)- (2,4-DICHLORO-BENZOYL)-AMINO]-5- PHENYL-THIOPHENE-2-CARBOXYLIC ACID]	< 5
CC(C)(C)OC(=O)N1CCCC(N(C(=O)c2ccc(Cl)cc2Cl)c2cc(-c3ccccc3)sc2C(=O)O)CC1 (stereo not shown) [Compound 507, 4-[(2-CARBOXY-5-PHENYL-THIOPHEN-3- YL)-(2,4-DICHLORO-BENZOYL)-AMINO]- AZEPANE-1-CARBOXYLIC ACID TERT!- BUTYL ESTER]	< 5
O=C(O)c1sc(-c2ccccc2)cc1N(CC1CCN(C(=O)OCc2ccccc2)CC1)C(=O)c1ccc(Cl)cc1Cl [Compound 508, 4-{[(2-CARBOXY-5-PHENYL-THIOPHEN-3- YL)-(2,4-DICHLORO-BENZOYL)-AMINO]- METHYL}-PIPERIDINE-1-CARBOXYLIC ACID BENZYL ESTER]	< 5
CC(C)(C)OC(=O)N1CCCC(N(C(=O)c2ccc(Cl)cc2Cl)c2cc(-c3ccccc3)sc2C(=O)O)C1 (stereo not shown) [Compound 511, 3-[(2-CARBOXY-5-PHENYL-THIOPHEN-3- YL)-(2,4-DICHLORO-BENZOYL)-AMINO]- PIPERIDINE-1-CARBOXYLIC ACID #TERT!-BUTYL ESTER]	< 5
O=C(NC1CCC(N(C(=O)c2ccc(Cl)cc2Cl)c2cc(-c3ccccc3)sc2C(=O)O)CC1)OCc1ccccc1 (stereo not shown) [Compound 512, 3-[(4-BENZYLOXYCARBONYLAMINO- CYCLOHEXYL)-(2,4-DICHLORO- BENZOYL)-AMINO]-5-PHENYL- THIOPHENE-2-CARBOXYLIC ACID]	< 5
CC1CCC(C(=O)N(c2cc(-c3ccccc3)sc2C(=O)O)C(C)C)C(=O)C1 (stereo not shown) [Compound 513, 3-[ISOPROPYL-(4-METHYL-2-OXO- CYCLOHEXANECARBONYL)-AMINO]-5- PHENYL-THIOPHENE-2-CARBOXYLIC ACID]	< 5
O=C(O)c1sc(-c2ccccc2)cc1N(C(=O)c1ccc(Cl)cc1Cl)C1CCCNC1 (stereo not shown) [Compound 514, 3-[(2,4-DICHLORO-BENZOYL)-PIPERIDIN- 3-YL-AMINO]-5-PHENYL-THIOPHENE-2- CARBOXYLIC ACID; COMPOUND WITH GENERIC INORGANIC NEUTRAL COMPONENT]	< 5
O=C(NC1CCC(N(C(=O)c2ccc(Cl)cc2Cl)c2cc(-c3ccccc3)sc2C(=O)O)CC1)OCc1ccccc1 (stereo not shown) [Compound 515, 3-[(4-BENZYLOXYCARBONYLAMINO- CYCLOHEXYL)-(2,4-DICHLORO- BENZOYL)-AMINO]-5-PHENYL- THIOPHENE-2-CARBOXYLIC ACID]	< 5
